This assay has as its system Jurkat. Nature of the assay: CellTiter-Glo Luminescent Cell Viability Assay, half inhibitory concentration (IC50) on tumor cell proliferation. Conditions: Homo sapiens, Jurkat cells, 72 h treatment. It counts as cell-based. As for the experimental part: The tumor cells used herein were cultured in a cell culture medium at 37° C. in an incubator with 5% CO2, where the cell culture medium was supplemented with 10% FBS, as well as penicillin at a final concentration of 100 U/mL and streptomycin at a final concentration of 100 μg/mL. Prior to experimentation, all cells used were identified as correct cells by STR cells, and were negative for mycoplasma through routine testing.
IC50 values of the compounds of the present disclosure (including the compounds in Table 1 and compounds of examples) were measured using the CellTiter-Glo® Luminescent Cell Viability Assay kit from Promega Corporation. Assay details are as follows: Cells were seeded in 100 μL RPMI1640 medium containing serum at a density of 20,000 cells/well. After 24 h, the inoculated cells were treated with the compounds of the present disclosure which were serially diluted. After the cells were treated with the compounds of the present disclosure for 72 h, the CellTiter-Glo® reagent was added to the culture medium for cell viability assessment according to the instructions provided with the kit. DMSO served as the negative control, and FK866 inhibitor was used as the positive control, both treated with the same protocol as the compounds of the present disclosure. The growth inhibition of the compounds of the present disclosure on cells was plotted by Prism Graphpad software, and the IC50 values of the compounds of the present disclosure were calculated therefrom.
For orientation: IC50 means the point on the concentration scale where inhibition reaches its midpoint. Compound `O=C(/C=C/c1cccnc1)NCCCCC1CCN(C(=O)c2ccc(N3CCNCC3)cc2)CC1` [SIAIS630006, (E)-N-(4-(1-(4-(piperazin-1-yl)benzoyl)piperidin-4-yl)butyl)-3-(pyridin-3-yl)acrylamide] had an IC50 of 3 nM.
The same measure for `Cc1ncsc1-c1ccc(CNC(=O)[C@@H]2C[C@@H](O)CN2C(=O)[C@@H](NC(=O)CCCCC(=O)N2CCN(c3ccc(C(=O)N4CCC(CCCCNC(=O)/C=C/c5cccnc5)CC4)cc3)CC2)C(C)(C)C)cc1` [SIAIS630007, (2S,4R)-1-((S)-3,3-dimethyl-2-(6-oxo-6-(4-(4-(4-(4-((E)-3-(pyridin-3-yl)acrylamido)butyl)piperidine-1-carbonyl)phenyl)piperazin-1-yl)hexanamido)butanoyl)-4-hydroxy-N-(4-(4-methylthiazol-5-yl)benzyl)pyrrolidine-2-carboxamide]: 109 nM.
The same measure for `Cc1ncsc1-c1ccc(CNC(=O)[C@@H]2C[C@@H](O)CN2C(=O)[C@@H](NC(=O)CCCCCCCCCCCCCCC(=O)N2CCN(c3ccc(C(=O)N4CCC(CCCCNC(=O)/C=C/c5cccnc5)CC4)cc3)CC2)C(C)(C)C)cc1` [SIAIS630008, (2S,4R)-1-((S)-3,3-dimethyl-2-(16-oxo-16-(4-(4-(4-(4-((E)-3-(pyridin-3-yl)acrylamido)butyl)piperidine-1-carbonyl)phenyl)piperazin-1-yl)hexadecanamido)butanoyl)-4-hydroxy-N-(4-(4-methylthiazol-5-yl)benzyl)pyrrolidine-2-carboxamide]: 96.2 nM; for `O=C(/C=C/c1cccnc1)NCCCCC1CCN(C(=O)c2ccc(N3CCN(C(=O)CCNc4cccc5c4C(=O)N(C4CCC(=O)NC4=O)C5=O)CC3)cc2)CC1` (stereo not drawn) [SIAIS630009, (E)-N-(4-(1-(4-(4-(3-((2-(2,6-dioxopiperidin-3-yl)-1,3-dioxoisoindolin-4-yl)amino)propanoyl)piperazin-1-yl)benzoyl)piperidin-4-yl)butyl)-3-(pyridin-3-yl)acrylamide]: 2.29 nM; for `O=C(/C=C/c1cccnc1)NCCCCC1CCN(C(=O)c2ccc(N3CCN(C(=O)CCCNc4cccc5c4C(=O)N(C4CCC(=O)NC4=O)C5=O)CC3)cc2)CC1` (stereo not drawn) [SIAIS630010, (E)-N-(4-(1-(4-(4-(4-((2-(2,6-dioxopiperidin-3-yl)-1,3-dioxoisoindolin-4-yl)amino)butanoyl)piperazin-1-yl)benzoyl)piperidin-4-yl)butyl)-3-(pyridin-3-yl)acrylamide]: 0.351 nM.
In turn, `O=C(/C=C/c1cccnc1)NCCCCC1CCN(C(=O)c2ccc(N3CCN(C(=O)CCCCNc4cccc5c4C(=O)N(C4CCC(=O)NC4=O)C5=O)CC3)cc2)CC1` (stereo not drawn) [SIAIS630011, (E)-N-(4-(1-(4-(4-(5-((2-(2,6-dioxopiperidin-3-yl)-1,3-dioxoisoindolin-4-yl)amino)pentanoyl)piperazin-1-yl)benzoyl)piperidin-4-yl)butyl)-3-(pyridin-3-yl)acrylamide] gave an IC50 of 2.85 nM.
The same measure for `O=C(/C=C/c1cccnc1)NCCCCC1CCN(C(=O)c2ccc(N3CCN(C(=O)CCCCCCNc4cccc5c4C(=O)N(C4CCC(=O)NC4=O)C5=O)CC3)cc2)CC1` (stereo not drawn) [SIAIS630012, (E)-N-(4-(1-(4-(4-(7-((2-(2,6-dioxopiperidin-3-yl)-1,3-dioxoisoindolin-4-yl)amino)heptanoyl)piperazin-1-yl)benzoyl)piperidin-4-yl)butyl)-3-(pyridin-3-yl)acrylamide]: 2.82 nM; for `O=C(/C=C/c1cccnc1)NCCCCC1CCN(C(=O)c2ccc(N3CCN(C(=O)CSc4cccc5c4CN(C4CCC(=O)NC4=O)C5=O)CC3)cc2)CC1` (stereo not drawn) [SIAIS630013, (E)-N-(4-(1-(4-(4-(2-((2-(2,6-dioxopiperidin-3-yl)-1-oxoisoindolin-4-yl)thio)acetyl)piperazin-1-yl)benzoyl)piperidin-4-yl)butyl)-3-(pyridin-3-yl)acrylamide]: 190 nM; for `O=C(/C=C/c1cccnc1)NCCCCC1CCN(C(=O)c2ccc(N3CCN(C(=O)CCCCSc4cccc5c4CN(C4CCC(=O)NC4=O)C5=O)CC3)cc2)CC1` (stereo not drawn) [SIAIS630014, (E)-N-(4-(1-(4-(4-(5-((2-(2,6-dioxopiperidin-3-yl)-1-oxoisoindolin-4-yl)thio)pentanoyl)piperazin-1-yl)benzoyl)piperidin-4-yl)butyl)-3-(pyridin-3-yl)acrylamide]: 1.99 nM.
With `O=C(/C=C/c1cccnc1)NCCCCN1CCN(C(=O)c2ccc(N3CCNCC3)cc2)CC1` [SIAIS630020, (E)-N-(4-(4-(4-(piperazin-1-yl)benzoyl)piperazin-1-yl)butyl)-3-(pyridin-3-yl)acrylamide], the IC50 is 849 nM.
With `O=C(/C=C/c1cccnc1)NCCCCC1CCN(C(=O)c2ccc(N3CCN(C(=O)CCCCCSc4cccc5c4CN(C4CCC(=O)NC4=O)C5=O)CC3)cc2)CC1` (stereo not drawn) [SIAIS630037, (E)-N-(4-(1-(4-(4-(6-((2-(2,6-dioxopiperidin-3-yl)-1-oxoisoindolin-4-yl)thio)hexanoyl)piperazin-1-yl)benzoyl)piperidin-4-yl)butyl)-3-(pyridin-3-yl)acrylamide], half-maximal inhibition (IC50) was put at 1.14 nM.
With `O=C(/C=C/c1cccnc1)NCCCCC1CCN(C(=O)c2ccc(N3CCN(C(=O)COCCSc4cccc5c4CN(C4CCC(=O)NC4=O)C5=O)CC3)cc2)CC1` (stereo not drawn) [SIAIS630038, (E)-N-(4-(1-(4-(4-(2-(2-((2-(2,6-dioxopiperidin-3-yl)-1-oxoisoindolin-4-yl)thio)ethoxy)acetyl)piperazin-1-yl)benzoyl)piperidin-4-yl)butyl)-3-(pyridin-3-yl)acrylamide], inhibition was half-maximal at 24.7 nM (IC50).
Compound `O=C(/C=C/c1cccnc1)NCCCCC1CCN(C(=O)c2ccc(N3CCN(C(=O)COCCOCCSc4cccc5c4CN(C4CCC(=O)NC4=O)C5=O)CC3)cc2)CC1` (stereo not drawn) [SIAIS630039, (E)-N-(4-(1-(4-(4-(2-(2-(2-((2-(2,6-dioxopiperidin-3-yl)-1-oxoisoindolin-4-yl)thio)ethoxy)ethoxy)acetyl)piperazin-1-yl)benzoyl)piperidin-4-yl)butyl)-3-(pyridin-3-yl)acrylamide] yielded an IC50 of 7.96 nM.
For the compound `O=C(/C=C/c1cccnc1)NCCCCC1CCN(C(=O)c2ccc(N3CCN(CCCCC#Cc4cccc5c4CN(C4CCC(=O)NC4=O)C5=O)CC3)cc2)CC1` (stereo not drawn) [SIAIS630119, (E)-N-(4-(1-(4-(4-(6-(2-(2,6-dioxopiperidin-3-yl)-1-oxoisoindolin-4-yl)hex-5-yn-1-yl)piperazin-1-yl)benzoyl)piperidin-4-yl)butyl)-3-(pyridin-3-yl)acrylamide], the IC50 is 2.99 nM.
The same measure for `O=C(/C=C/c1cccnc1)NCCCCC1CCN(C(=O)c2ccc(N3CCN(CCCCCCCC#Cc4cccc5c4CN(C4CCC(=O)NC4=O)C5=O)CC3)cc2)CC1` (stereo not drawn) [SIAIS630122, (E)-N-(4-(1-(4-(4-(9-(2-(2,6-dioxopiperidin-3-yl)-1-oxoisoindolin-4-yl)non-8-yn-1-yl)piperazin-1-yl)benzoyl)piperidin-4-yl)butyl)-3-(pyridin-3-yl)acrylamide]: 28.3 nM.
The same measure for `O=C(/C=C/c1cccnc1)NCCCCC1CCN(C(=O)c2ccc(N3CCN(CCCCSc4cccc5c4CN(C4CCC(=O)NC4=O)C5=O)CC3)cc2)CC1` (stereo not drawn) [SIAIS630123, (E)-N-(4-(1-(4-(4-(4-((2-(2,6-dioxopiperidin-3-yl)-1-oxoisoindolin-4-yl)thio)butyl)piperazin-1-yl)benzoyl)piperidin-4-yl)butyl)-3-(pyridin-3-yl)acrylamide]: 2.52 nM; for `O=C(/C=C/c1cccnc1)NCCCCC1CCN(C(=O)c2ccc(N3CCN(CCCC#Cc4cccc5c4CN(C4CCC(=O)NC4=O)C5=O)CC3)cc2)CC1` (stereo not drawn) [SIAIS630129, (E)-N-(4-(1-(4-(4-(5-(2-(2,6-dioxopiperidin-3-yl)-1-oxoisoindolin-4-yl)pent-4-yn-1-yl)piperazin-1-yl)benzoyl)piperidin-4-yl)butyl)-3-(pyridin-3-yl)acrylamide]: 2.93 nM.
The same measure for `O=C(/C=C/c1cccnc1)NCCCCC1CCN(C(=O)c2ccc(N3CCN(CCSc4cccc5c4CN(C4CCC(=O)NC4=O)C5=O)CC3)cc2)CC1` (stereo not drawn) [SIAIS630130, (E)-N-(4-(1-(4-(4-(2-((2-(2,6-dioxopiperidin-3-yl)-1-oxoisoindolin-4-yl)thio)ethyl)piperazin-1-yl)benzoyl)piperidin-4-yl)butyl)-3-(pyridin-3-yl)acrylamide]: 24.2 nM.
Regarding `O=C(/C=C/c1cccnc1)NCCCCC1CCN(C(=O)c2ccc(N3CCN(CCCSc4cccc5c4CN(C4CCC(=O)NC4=O)C5=O)CC3)cc2)CC1` (stereo not drawn) [SIAIS630131, (E)-N-(4-(1-(4-(4-(3-((2-(2,6-dioxopiperidin-3-yl)-1-oxoisoindolin-4-yl)thio)propyl)piperazin-1-yl)benzoyl)piperidin-4-yl)butyl)-3-(pyridin-3-yl)acrylamide], the IC50 stood at 4.38 nM.
For `O=C(/C=C/c1cccnc1)NCCCCC1CCN(C(=O)c2ccc(N3CCN(CCCCCSc4cccc5c4CN(C4CCC(=O)NC4=O)C5=O)CC3)cc2)CC1` (stereo not drawn) [SIAIS630132, (E)-N-(4-(1-(4-(4-(5-((2-(2,6-dioxopiperidin-3-yl)-1-oxoisoindolin-4-yl)thio)pentyl)piperazin-1-yl)benzoyl)piperidin-4-yl)butyl)-3-(pyridin-3-yl)acrylamide], the IC50 is 6.29 nM.
The same measure for `O=C(/C=C/c1cccnc1)NCCCCC1CCN(C(=O)c2ccc(N3CCN(CCCCCCSc4cccc5c4CN(C4CCC(=O)NC4=O)C5=O)CC3)cc2)CC1` (stereo not drawn) [SIAIS630133, (E)-N-(4-(1-(4-(4-(6-((2-(2,6-dioxopiperidin-3-yl)-1-oxoisoindolin-4-yl)thio)hexyl)piperazin-1-yl)benzoyl)piperidin-4-yl)butyl)-3-(pyridin-3-yl)acrylamide]: 6.37 nM.

(Values after patent publication US20250144223A1, “PROTEIN DEGRADATION COMPOUND BASED ON NAMPT TARGET PROTEIN AND APPLICATION THEREOF” (GLUETACS THERAPEUTICS (SHANGHAI) CO., LTD., priority 2021, published 2025).)
